Square brackets hold non-standard residues; d marks the D form. Peptide text beside a SMILES is read from it. Nle = CCCC[C@H](N)C(=O)O
Experiments:
Hsp90 = assay: Immunoprecipitation of Hsp90 from radiolabeled HepG2 cells; type: cell-based, human; conditions: HepG2, ALLN 4 hours
Method: FIGS. 7A-7B: Effects of ALLN on the biosynthesis of other members of Hsp family and related proteins. HepG2 cells were pre-treated and radiolabeled with or without ALLN for 4 hours as described in FIG. 1. Cell lysates were used for SDS-PAGE (A), or for immunoprecipitation with anti-Hsp25, -Hsp27, -Hsp60, -Hsp70, -Hsp86, -Hsp90, -Hsp104, -Bip, or -albumin antibodies respectively (1 μg/ml) (B). Because the anti-Hsp25, -Hsp27, -Hsp60 and Hsp90 antibodies are from a rat source, rabbit anti-rat IgG antibody was added after the first incubation, and the incubation was extended for another 1 hour at 4° C. before collection with protein A-Sepharose.Immunoprecipitates were loaded for SDS-PAGE and aliquoted for scintillation counting and plotting. Each value was presented as mean ±S.D. from three individual culture dishes.
HepG2 cells were preincubated for 4 hours in serum-free MEM and then radiolabeled with ^3 H-Leucine (150 μCi/ml) in a serum-free, leucine-free medium. […] Cell lysates containing equal amounts of trichloroacetic acid (TCA)-insoluble radioactivity were used for immunoprecipitations by incubating with individual monoclonal antibody (1 μg/ml) for 2.5 hours at 4° C. […]

apoB = conditions: Sakata, et al., 1993, unpublished data; cited from earlier work

## CCCC[C@@H](C=O)NC(=O)[C@H](CC(C)C)NC(=O)[C@H](CC(C)C)NC(C)=O [ALLN, N-acetyl-leucyl-leucyl-norleucinal] (Ac-Leu-Leu-[Nle]-aldehyde)
Hsp90
  Effect on Hsp90: no effects
apoB
  Protection of apoB: protected

From US5942494A, “Stimulation of gene expression and synthesis of heat shock protein 72/73 (HSP 70)” (The Trustees of Columbia University in the City of New York, priority 1996, dated 1999)
